Experiments:
[1] = Stability experiment of salt of Formula A (high temperature, high humidity, illumination; HPLC purity and X-ray powder diffraction); format: physicochemical; conditions: for Purity (%): HPLC; for Stability (chemical purity and crystalline form): high temperature, illumination or high humidity for 10 days
Protocol: Determination method: the test samples of Form A-I, Form B-I, Form C-I, and Form C-Ill of salt of Formula A were placed on the culture dishes respectively, which were uncovered and placed in sealed clean containers. The containers were placed under a temperature of 60° C. for 10 days, under an illumination of 4500 lx±500 lx for 10 days, and under a temperature of 25° C. and a relative humidity of 92.5%±5% for 10 days respectively. Then sampled on the 5th day and the 10th day respectively. Investigated for the purity (using HPLC analysis) and crystalline form (using X-ray powder diffraction analysis) of the samples, and compared the investigation results. The experimental results of the salts and the crystalline forms thereof were shown in Table 1, Table 2, Table 3, and Table 4.9

[2] = Rough solubility test of salt of Formula A in water; format: physicochemical; conditions: Purified Water, 19° C.; for solubility at 5 min: thermodynamic from solid
Protocol: After each addition of water, the test tube was shaken for 5 minutes until the solid was dissolved completely. Then the rough solubility of the compound was calculated according to the weight of the compound weighed and the total amount of water added.

[3] = Solubility test of salt of Formula A (acetate, Form A-I) and its free base in different solvents; conditions: thermodynamic from solid
Text: (§1) Then the excess solids were filtered out, and the clear filtrates were used to determine solubility.

physchem = conditions: water, thermodynamic from solid, Solubility (mg/mL)
Text: as §1

[4] = High humidity (92.5% RH, 25° C.), 5 days, malate
[5] = High humidity (92.5% RH, 25° C.), 10 days, malate
[6] = High temperature (60° C.), 5 days, malate
[7] = High temperature (60° C.), 10 days, malate
[8] = Illumination (4500 Lx), 5 days, malate
[9] = Illumination (4500 Lx), 10 days, malate
[10] = High humidity (92.5% RH, 25° C.), 5 days, monomalate
[11] = High humidity (92.5% RH, 25° C.), 10 days, monomalate
[12] = High temperature (60° C.), 5 days, monomalate
[13] = High temperature (60° C.), 10 days, monomalate
[14] = Illumination (4500 Lx), 5 days, monomalate
[15] = Illumination (4500 Lx), 10 days, monomalate
[16] = 0 day, crystalline form by X-ray powder diffraction
[17] = High humidity (92.5% RH, 25° C.), 5 days
[18] = High humidity (92.5% RH, 25° C.), 5 days, X-ray powder diffraction
[19] = High humidity (92.5% RH, 25° C.), 10 days
[20] = High humidity (92.5% RH, 25° C.), 10 days, X-ray powder diffraction
[21] = High temperature (60° C.), 5 days
[22] = High temperature (60° C.), 5 days, X-ray powder diffraction
[23] = High temperature (60° C.), 10 days
[24] = High temperature (60° C.), 10 days, X-ray powder diffraction
[25] = Illumination (4500 Lx), 5 days, X-ray powder diffraction
[26] = Illumination (4500 Lx), 10 days
[27] = Illumination (4500 Lx), 10 days, X-ray powder diffraction

With CS(=O)(=O)N1CCC(c2ccc(-c3cc4nccnc4c(NC[C@@H]4CNCCO4)n3)cc2)CC1.O=C(O)CC(O)C(=O)O [Form C-III, (S)-7-(4-(1-(methylsulfonyl)piperidin-4-yl)phenyl)-N-(morpholin-2-ylmethyl)pyrido[3,4-b]pyrazin-5-amine malate] the “Purity (%)” value ([1]; 0 day, malate) was 99.75%, the Form ([1]; 0 day, crystalline form by X-ray powder diffraction, malate) was “C-III” and the “Chiral Purity (%)” value ([1]; 0 day, malate) was 99.39%. For the same compound, the “Purity (%)” value [1, 4] was 99.67%, the Form ([1]; High humidity (92.5% RH, 25° C.), 5 days, X-ray powder diffraction, malate) was “C-III” and the “Chiral Purity (%)” value [1, 4] was 99.39%. For the same compound, the “Purity (%)” value [1, 5] was 99.69%, the Form ([1]; High humidity (92.5% RH, 25° C.), 10 days, X-ray powder diffraction, malate) was “C-III” and the “Chiral Purity (%)” value [1, 5] was 99.38%. For the same compound, the “Purity (%)” value [1, 6] was 99.57%, the Form ([1]; High temperature (60° C.), 5 days, X-ray powder diffraction, malate) was “C-III” and the “Chiral Purity (%)” value [1, 6] was 99.40%. The “Purity (%)” value [1, 7] was 99.70%, the Form ([1]; High temperature (60° C.), 10 days, X-ray powder diffraction, malate) was “C-III” and the “Chiral Purity (%)” value [1, 7] was 99.39%. The “Purity (%)” value [1, 8] was 99.59%, the Form ([1]; Illumination (4500 Lx), 5 days, X-ray powder diffraction, malate) was “C-III” and the “Chiral Purity (%)” value [1, 8] was 99.37%. The “Purity (%)” value [1, 9] was 99.65%, the Form ([1]; Illumination (4500 Lx), 10 days, X-ray powder diffraction, malate) was “C-III” and the “Chiral Purity (%)” value [1, 9] was 99.40%.
For CS(=O)(=O)N1CCC(c2ccc(-c3cc4nccnc4c(NC[C@@H]4CNCCO4)n3)cc2)CC1.O=C(O)CC(O)C(=O)O [Form C-I, (S)-7-(4-(1-(methylsulfonyl)piperidin-4-yl)phenyl)-N-(morpholin-2-ylmethyl)pyrido[3,4-b]pyrazin-5-amine monomalate], the solubility at 5 min [2] was 480 µg/mL, the “Purity (%)” value ([1]; 0 day, monomalate) was 99.71% and the Form ([1]; 0 day, crystalline form by X-ray powder diffraction, monomalate) was “C-I”. For the same compound, the “Chiral Purity (%)” value ([1]; 0 day, monomalate) was 99.52%, the “Purity (%)” value [1, 10] was 99.72% and the Form ([1]; High humidity (92.5% RH, 25° C.), 5 days, X-ray powder diffraction, monomalate) was “C-I”. The “Chiral Purity (%)” value [1, 10] was 99.53%, the “Purity (%)” value [1, 11] was 99.68% and the Form ([1]; High humidity (92.5% RH, 25° C.), 10 days, X-ray powder diffraction, monomalate) was “C-I”. For the same compound, the “Chiral Purity (%)” value [1, 11] was 99.53%, the “Purity (%)” value [1, 12] was 99.61% and the Form ([1]; High temperature (60° C.), 5 days, X-ray powder diffraction, monomalate) was “C-I”. The “Chiral Purity (%)” value [1, 12] was 99.52%, the “Purity (%)” value [1, 13] was 99.63% and the Form ([1]; High temperature (60° C.), 10 days, X-ray powder diffraction, monomalate) was “C-I”. The “Chiral Purity (%)” value [1, 13] was 99.54%, the “Purity (%)” value [1, 14] was 99.67% and the Form ([1]; Illumination (4500 Lx), 5 days, X-ray powder diffraction, monomalate) was “C-I”. The “Chiral Purity (%)” value [1, 14] was 99.51%, the “Purity (%)” value [1, 15] was 99.61% and the Form ([1]; Illumination (4500 Lx), 10 days, X-ray powder diffraction, monomalate) was “C-I”. For the same compound, the “Chiral Purity (%)” value [1, 15] was 99.50% and the “Stability (chemical purity and crystalline form)” value [1] was “stable”.
In the case of CS(=O)(=O)N1CCC(c2ccc(-c3cc4nccnc4c(NC[C@@H]4CNCCO4)n3)cc2)CC1.Cc1ccc(S(=O)(=O)O)cc1 [Form B-I, (S)-7-(4-(1-(methylsulfonyl)piperidin-4-yl)phenyl)-N-(morpholin-2-ylmethyl)pyrido[3,4-b]pyrazin-5-amine mono p-Tosylate], the “Rough solubility” value [2] is reported as 650 µg/mL, the “Chiral Purity (%)” value ([1]; 0 day) is reported as 99.71% and the “Purity (%)” value ([1]; 0 day) is reported as 99.49%. For the same compound, the Form [1, 16] was “B-I”, the “Chiral Purity (%)” value [1, 17] was 99.76% and the “Purity (%)” value [1, 17] was 99.47%. The Form [1, 18] was “B-I”, the “Chiral Purity (%)” value [1, 19] was 99.71% and the “Purity (%)” value [1, 19] was 99.63%. The Form [1, 20] was “B-I”, the “Chiral Purity (%)” value [1, 21] was 99.70% and the “Purity (%)” value [1, 21] was 99.48%. For the same compound, the Form [1, 22] was “B-I”, the “Chiral Purity (%)” value [1, 23] was 99.76% and the “Purity (%)” value [1, 23] was 99.51%. For the same compound, the Form [1, 24] was “B-I”, the “Chiral Purity (%)” value ([1]; Illumination (4500 Lx), 5 days) was 99.76% and the “Purity (%)” value ([1]; Illumination (4500 Lx), 5 days) was 99.19%. For the same compound, the Form [1, 25] was “B-I”, the “Chiral Purity (%)” value [1, 26] was 99.72% and the “Purity (%)” value [1, 26] was 99.05%. The Form [1, 27] was “B-I”.
Compound CS(=O)(=O)N1CCC(c2ccc(-c3cc4nccnc4c(NC[C@@H]4CNCCO4)n3)cc2)CC1 [Free base of Formula A, (S)-7-(4-(1-(methylsulfonyl)piperidin-4-yl)phenyl)-N-(morpholin-2-ylmethyl) pyrido[3,4-b]pyrazin-5-amine] has a solubility at 4 h ([3]; acetone, organic solvent or mixture) of 2120 µg/mL, a solubility at 4 h ([3]; ethanol, organic solvent or mixture) of 640 µg/mL and a solubility at 4 h ([3]; methanol, organic solvent or mixture) of 1580 µg/mL. For the same compound, the solubility at 4 h ([3]; purified water, 37 °C, water) was 2.5 µg/mL, the solubility at 4 h ([3]; purified water, water) was 2.4 µg/mL and the solubility at 4 h ([3]; tetrahydrofuran, organic solvent or mixture) was 10700 µg/mL.
With CC(=O)O.CS(=O)(=O)N1CCC(c2ccc(-c3cc4nccnc4c(NC[C@@H]4CNCCO4)n3)cc2)CC1 [Form A-I, (S)-7-(4-(1-(methylsulfonyl)piperidin-4-yl)phenyl)-N-(morpholin-2-ylmethyl)pyrido[3,4-b]pyrazin-5-amine monoacetate] the solubility at 5 min [2] was 14600 µg/mL, the “Chiral Purity (%)” value ([1]; 0 day) was 99.63% and the “Purity (%)” value ([1]; 0 day) was 99.39%. The Form [1, 16] was “A-I”, the “Chiral Purity (%)” value [1, 17] was 99.69% and the “Purity (%)” value [1, 17] was 99.35%. The Form [1, 18] was “A-I”, the “Chiral Purity (%)” value [1, 19] was 99.71% and the “Purity (%)” value [1, 19] was 99.53%. The Form [1, 20] was “A-I”, the “Chiral Purity (%)” value [1, 21] was 99.66% and the “Purity (%)” value [1, 21] was 99.31%. The Form [1, 22] was “A-I”, the “Chiral Purity (%)” value [1, 23] was 99.71% and the “Purity (%)” value [1, 23] was 99.37%. The Form [1, 24] was “A-I”, the “Chiral Purity (%)” value ([1]; Illumination (4500 Lx), 5 days) was 99.69% and the “Purity (%)” value ([1]; Illumination (4500 Lx), 5 days) was 99.30%. For the same compound, the Form [1, 25] was “A-I”, the “Chiral Purity (%)” value [1, 26] was 99.71% and the “Purity (%)” value [1, 26] was 98.99%. The Form [1, 27] was “A-I”, the “Stability (chemical purity and crystalline form)” value [1] was “stable” and the solubility at 4 h (physchem; 37 °C) was 26200 µg/mL. It also gave a solubility at 4 h (physchem) of 21800 µg/mL.

Reference: patent US12084441B2, “Salts of a compound and the crystalline forms thereof” (priority 2017, dated 2024)
